Source: US10028956B2, “Methods of treating various cancers using an AXL/cMET inhibitor in combination with other agents” (Ignyta, Inc., priority 2013, dated 2018)
Marks after values point to notes of the source that are not given here.

Key:
[1] = tested on: EBC-1 Human NSCLC xenografts; assay: Anti-tumor efficacy in EBC-1 NSCLC xenografts; type: in vivo, mice
Text: The human NSCL cancer cell line, EBC-1 was purchased from ATCC (American Tissue Culture Collection, Manassas, Va.) and cultured in DMEM medium with 10% fetal bovine serum (FBS, Cat# SH3007003, Hyclone Laboratory Inc, Logan, Utah). Female Nu/Nu mice (6-8 weeks, Charles River Laboratory, Wilmington, Mass.) were maintained 5/cage in microisolator units on a standard laboratory diet (Teklad Labchow, Harlan Teklad, Madison, Wis.). Animals were housed under humidity- and temperature-controlled conditions and the light/dark cycle was set at 12-hour intervals. Mice were quarantined at least 1 week prior to experimental manipulation. […] The mice were then monitored daily. […] The length (L) and width (W) of each tumor was measured with a vernier caliper and the mouse body weight was determined every 2-3 days. The tumor volumes were then calculated with the formula of 0.5236*L*W*(L+W)/2. […] Plasma and tumor samples were obtained at 2 hours post final dose at each dose level, and the compound levels in plasma and tumor lysates were measured by LC-MS/MS. The TGI values were calculated at the end of study by comparing the tumor volumes (TV) of each CEP-40783-treatment group with those of vehicle-treated group with the following formula: 1-(the last day TV of compound-treated group/the last day TV of vehicle-treated group).

[2] = tested on: CTG-0159 primary NSCLC human TumorGraft; assay: NSCLC TumorGraft model CTG-0159; type: in vivo, mice; details: CTG-0159, 14 days
Method: Methods (for the experiments shown in FIGS. 10 and 11) • Female immunocompromised nu/nu mice (Harlan) between 6-9 weeks of age were housed on irradiated papertwist-enriched ⅛″ corncob bedding (Sheperd) in individual HEPA ventilated cages (Innocage® IVC, Innovive USA) on a 12-hour light-dark cycle at 68-74° F. (20-23° C.) and 30-70% humidity. Animals were fed water ad libitum (reverse osmosis, 2 ppm Cl2) and an irradiated Test rodent diet (Teklad 2919) consisting of 19% protein, 9% fat, and 4% fiber. • Tumor Models: Champions TumorGraft models of NSCLC are owned by Champions Oncology. In this study, animals were implanted unilaterally on the right flank with tumor fragments harvested from host animals. […] Erlotinib (manufacturer: OSI Pharmaceuticals; National Drug Code: 50242-062-01; Lot #: US0002) was formulated using 100% PEG-400 as the vehicle according to manufacturer's specifications.
Efficacy measurements: Beginning Day 0, tumor dimensions were measured twice weekly by digital caliper (Fowler Ultra-Cal IV) and data including individual and mean estimated tumor volumes (Mean TV±SEM) were recorded for each group; tumor volume was calculated using the formula TV=width^2×length×0.52. At study completion, percent tumor growth inhibition (% TGI) values were calculated and reported for each treatment group (T) versus control (C) using initial (i) and final (f) tumor measurements by the formula: % TGI=1−Tf−Ti/Cf−C; single agent or combination therapies resulting in a TGI>50 at study completion are considered active in the tested model at the evaluated treatment regimen according to NCI guidelines. […] If the PR persisted until study completion, percent tumor regression (% TR) was determined using the formula: % TR=1−Tf/Ti×100; a mean value was calculated if multiple PR mice occurred in one group. […] Statistical differences in tumor volume were determined using a two-tailed One-Way Analysis of Variance (ANOVA) followed by the Dunett's multiple comparisons test comparing treated groups with control and combinations with standard agent alone when possible. […]

## COc1cc2nccc(Oc3ccc(NC(=O)c4cn(C(C)C)c(=O)n(-c5ccc(F)cc5)c4=O)cc3F)c2cc1OC [CEP-40783, 3-(4-Fluorophenyl)-1-isopropyl-2,4-dioxo-1,2,3,4-tetrahydropyrimidine-5-carboxylic acid [4-(6,7-dimethoxyquinolin-4-yloxy)-3-fluorophenyl]-amide]
[1]; 3 mg/kg oral qd
  anti-tumor efficacy (tumor volume): tumor stasis and partial regressions
[1]; 10 mg/kg and 30 mg/kg oral qd
  anti-tumor efficacy (tumor volume): tumor regressions
[2]; 10 mg/kg po/qd
  % Tumor Growth Inhibition: 46%*
[2]; 30 mg/kg po/qd
  % Tumor Growth Inhibition: 66%*†
